Assay [1] addresses T1, Matrix metalloproteinase-14 (Homo sapiens, UniProt P50281). As to the kind of experiment: Percent remaining enzyme activity (RA) in catalytic domains of the membrane type MT1-MMP (matrix metalloprotease-14). Also on record: concentration or dose not given beside the values.
In assay [2] the target is T2, Neutrophil collagenase (Homo sapiens, UniProt P22894). The experiment in a line: Percent remaining enzyme activity (RA) in neutrophil collagenase (matrix metalloprotease-8). Also on record: concentration or dose not given beside the values.
Target sequence in this assay (P22894 101-467 limits assumed): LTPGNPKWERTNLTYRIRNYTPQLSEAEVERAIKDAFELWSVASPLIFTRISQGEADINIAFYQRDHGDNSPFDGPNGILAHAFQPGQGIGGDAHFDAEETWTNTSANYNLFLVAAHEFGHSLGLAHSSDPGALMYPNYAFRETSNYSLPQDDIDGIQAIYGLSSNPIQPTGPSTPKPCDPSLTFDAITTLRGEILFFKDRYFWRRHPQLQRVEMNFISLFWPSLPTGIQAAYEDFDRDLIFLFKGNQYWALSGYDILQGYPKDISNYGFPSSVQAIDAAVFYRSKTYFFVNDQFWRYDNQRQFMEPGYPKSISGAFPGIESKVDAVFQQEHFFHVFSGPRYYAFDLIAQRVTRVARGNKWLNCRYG
The target of assay [3] is T3, Matrix metalloproteinase-9 (Homo sapiens, UniProt P14780). The experiment in a line: Inhibitory activity against human gelatinase B (matrix metalloprotease-9).
T3 sequence (P14780 whole entry): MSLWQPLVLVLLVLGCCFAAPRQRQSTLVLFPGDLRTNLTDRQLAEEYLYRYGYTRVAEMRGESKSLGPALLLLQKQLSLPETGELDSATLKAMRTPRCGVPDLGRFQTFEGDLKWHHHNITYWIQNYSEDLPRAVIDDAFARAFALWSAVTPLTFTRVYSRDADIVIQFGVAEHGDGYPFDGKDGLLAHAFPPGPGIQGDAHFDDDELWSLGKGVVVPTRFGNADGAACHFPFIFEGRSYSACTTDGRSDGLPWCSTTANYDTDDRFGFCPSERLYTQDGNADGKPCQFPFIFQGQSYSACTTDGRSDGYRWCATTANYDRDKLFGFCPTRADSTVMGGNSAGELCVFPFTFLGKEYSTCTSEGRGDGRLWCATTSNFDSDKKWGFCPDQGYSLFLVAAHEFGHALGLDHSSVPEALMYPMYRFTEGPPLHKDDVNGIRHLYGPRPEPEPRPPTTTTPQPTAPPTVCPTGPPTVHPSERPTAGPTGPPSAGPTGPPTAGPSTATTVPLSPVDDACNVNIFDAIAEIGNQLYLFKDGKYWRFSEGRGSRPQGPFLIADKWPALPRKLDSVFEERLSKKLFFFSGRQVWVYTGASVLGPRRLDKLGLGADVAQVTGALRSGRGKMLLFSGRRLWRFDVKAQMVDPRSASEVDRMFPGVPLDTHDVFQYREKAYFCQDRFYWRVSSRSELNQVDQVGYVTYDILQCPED
The target in assay [4] is T3, Matrix metalloproteinase-9. As to the kind of experiment: Percent remaining enzyme activity (RA) in human gelatinase B (matrix metalloprotease-9). Also on record: concentration or dose not given beside the values.
Assay [5] has as its target T1, Matrix metalloproteinase-14. As to the kind of experiment: (§1) Inhibition of membrane type MT1-MMP (Matrix metalloprotease-14)catalytic domain.
Assay [6] addresses T2, Neutrophil collagenase. The experiment in a line: Tested for its inhibitory activity against neutrophil collagenase (Matrix metalloprotease-8).
Target sequence in this assay (P22894 whole entry): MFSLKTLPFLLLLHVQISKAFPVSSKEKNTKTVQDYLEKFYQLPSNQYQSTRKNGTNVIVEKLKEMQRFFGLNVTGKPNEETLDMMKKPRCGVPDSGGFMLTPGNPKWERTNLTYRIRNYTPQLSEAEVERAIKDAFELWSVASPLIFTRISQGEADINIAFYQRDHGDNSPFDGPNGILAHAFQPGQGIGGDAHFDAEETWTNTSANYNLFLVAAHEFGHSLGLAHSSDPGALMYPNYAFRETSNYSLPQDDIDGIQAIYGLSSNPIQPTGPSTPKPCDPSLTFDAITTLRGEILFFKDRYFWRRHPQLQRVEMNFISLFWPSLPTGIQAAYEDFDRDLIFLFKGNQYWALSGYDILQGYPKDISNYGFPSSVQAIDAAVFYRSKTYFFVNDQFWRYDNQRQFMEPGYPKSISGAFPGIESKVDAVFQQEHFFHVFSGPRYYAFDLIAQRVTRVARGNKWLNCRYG
For assay [7], the target named is T1, Matrix metalloproteinase-14. The assay is described as §1. The settings on record: concentration not given here.

On to `CCCC[C@H](NC(=O)C(=O)NO)C(=O)N[C@H](Cc1ccc(OCc2ccccc2)cc1)C(=O)N(C)C`, for which the residual activity in assay [1] was determined as 29%; at Neutrophil collagenase [2], 34%; in assay [4] it was 13%. Moreover, the Ki came out at 7.5 µM in assay [3] and 33 µM in assay [5].
As for `CC(C)C[C@H](NC(=O)C(=O)NO)C(=O)N(C)C`, the residual activity came to 61% in assay [1], 72% at Neutrophil collagenase [2] and 55% in assay [4].
For `CC(NC(=O)[C@H](Cc1ccccc1)NC(=O)C(=O)NO)c1cccc2ccccc12` (some centres undefined), in that order: 42%, 5% and 2%.
`O=C(NO)C(=O)NCCc1c[nH]c2ccc(Cl)cc12`: the results for the residual activity (in assay [1]; at Neutrophil collagenase [2]; in assay [4]) were 35%, 15% and 2%, respectively. The Ki was determined as 14 µM on Neutrophil collagenase [6], 0.35 µM in assay [3] and 35 µM in assay [5].
For the compound `C[C@H](NC(=O)C(=O)NO)c1ccc2ccccc2c1`, the residual activity came to 80% in assay [1], 89% at Neutrophil collagenase [2] and 67% in assay [4].
As for `C[C@H](NC(=O)[C@H](Cc1ccc(O)cc1)NC(=O)C(=O)NO)c1ccccc1`, the residual activity in assay [1] came to 54%; at Neutrophil collagenase [2] it was 0%; in assay [4], 0%. In addition, the Ki on Neutrophil collagenase [6] turned out to be 0.25 µM; in assay [3], 0.6 µM.
As for `CN(C)C(=O)[C@H](Cc1cccc2ccccc12)NC(=O)C(=O)NO`, the residual activity in assay [1] was found to be 26%; at Neutrophil collagenase [2], 47%; in assay [4], 15%. In assay [3], the Ki was found to be 8.2 µM.
In the case of `C[C@H](NC(=O)[C@H](Cc1ccc2ccccc2c1)NC(=O)C(=O)NO)c1ccccc1`, the residual activity amounted to 37% in assay [1], 4% on Neutrophil collagenase [2] and 5% in assay [4]. For the same compound, the Ki at Neutrophil collagenase [6] was 1 µM; in assay [3], 0.5 µM.
Take `O=C(NO)C(=O)NCCc1c[nH]c2ccccc12`: the residual activity worked out at 48% in assay [1], 18% at Neutrophil collagenase [2] and 3% in assay [4]. In assay [3], this compound came in with a Ki of 0.8 µM.
`CC(OCc1ccccc1)[C@H](NC(=O)C(=O)NO)C(=O)N[C@@H](C)c1ccccc1` (some centres undefined): the residual activity in assay [1] stood at 71%; at Neutrophil collagenase [2] it was 8%; in assay [4], 11%. Moreover, the Ki worked out at 3 µM at Neutrophil collagenase [6] and 3.2 µM in assay [3].
Regarding `CN(C)C(=O)[C@H](COCc1ccccc1)NC(=O)C(=O)NO`, the results for the residual activity (in assay [1]; on Neutrophil collagenase [2]; in assay [4]) were 41%, 56% and 40%, respectively.
Consider `CNC(=O)[C@H](Cc1ccc(OCc2ccccc2)cc1)NC(=O)C(=O)NO`, for which the residual activity in assay [1] stood at 53%; on Neutrophil collagenase [2] it was 4%; in assay [4], 1%. Besides, the values for the Ki (at Neutrophil collagenase [6]; in assay [3]) were 1.5 µM and 2 µM, respectively.
With `CC(C)C[C@H](NC(=O)C(=O)NO)C(=O)N[C@H](C)c1ccccc1`, the residual activity in assay [1] was 79%; at Neutrophil collagenase [2] it was 74%; in assay [4], 60%.
For the compound `CN(C)C(=O)[C@H](Cc1c[nH]c2ccccc12)NC(=O)C(=O)NO`, the residual activity was 33% in assay [1], 44% on Neutrophil collagenase [2] and 25% in assay [4]. Further, the Ki came to 28 µM on Neutrophil collagenase [6], 4.4 µM in assay [3] and 15 µM in assay [5].
On to `O=C(NO)C(=O)N[C@@H](Cc1ccc(COc2ccccc2)cc1)C(=O)NO`, for which the residual activity in assay [1] was 23%; on Neutrophil collagenase [2], 5%; in assay [4] it was 2%.
Consider `C[C@H](NC(=O)[C@H](Cc1ccccc1)NC(=O)C(=O)NO)c1ccccc1`, for which the residual activity in assay [1] was 36%; on Neutrophil collagenase [2], 1%; in assay [4] it was 1%. Besides, the results for the Ki (on Neutrophil collagenase [6]; in assay [3]; in assay [5]) were 0.43 µM, 0.9 µM and 14 µM, respectively.
Consider `CN(C)C(=O)[C@H](Cc1ccc(COc2ccccc2)cc1)NC(=O)C(=O)NO`, for which the results for the residual activity (in assay [1]; at Neutrophil collagenase [2]; in assay [4]) were 37%, 43% and 7%, respectively. In addition, the figures for the Ki (on Neutrophil collagenase [6]; in assay [3]) were 22 µM and 3 µM, respectively.
In the case of `C[C@@H](NC(=O)C(=O)NO)c1ccc2ccccc2c1`, the residual activity in assay [1] came to 54%; at Neutrophil collagenase [2], 43%; in assay [4] it was 7%. In assay [3], affinity was put at a Ki of 3.3 µM.
As for `C[C@H](NC(=O)[C@H](Cc1cccc2ccccc12)NC(=O)C(=O)NO)c1ccccc1`, the results for the residual activity (at Neutrophil collagenase [2]; in assay [4]) were 0% and 1%, respectively. In addition, the figures for the Ki (on Neutrophil collagenase [6]; in assay [3]; in assay [5]) were 0.3 µM, 0.15 µM and 29 µM, respectively.
Regarding `C[C@H](NC(=O)[C@H](Cc1ccc(NC(=O)Nc2ccccc2)cc1)NC(=O)C(=O)NO)c1ccccc1`, the residual activity came to 74% in assay [1], 6% at Neutrophil collagenase [2] and 5% in assay [4]. Moreover, the Ki at Neutrophil collagenase [6] was found to be 1 µM; in assay [3], 0.8 µM.
Turning to `CC(C)C[C@H](NC(=O)C(=O)NO)C(=O)N[C@@H](C)c1ccccc1`, the figures for the residual activity (in assay [1]; at Neutrophil collagenase [2]; in assay [4]) were 54%, 3% and 9%, respectively. Also, the values for the Ki (on Neutrophil collagenase [6]; in assay [3]; in assay [5]) were 1.7 µM, 5.5 µM and 20 µM, respectively.
As for `C[C@H](NC(=O)[C@H](Cc1ccc(NC(=O)OCc2ccccc2)cc1)NC(=O)C(=O)NO)c1ccccc1`, the residual activity came out at 76% in assay [1], 32% at Neutrophil collagenase [2] and 22% in assay [4].
For the compound `O=C(NO)C(=O)NCCN(C(=O)C(=O)NO)c1cccc2ccccc12`, the residual activity in assay [1] came to 20%; on Neutrophil collagenase [2], 14%; in assay [4] it was 0%. The same compound showed a Ki in assay [3] of 0.1 µM.
`O=C(NO)C(=O)NCCC(NC(=O)C(=O)NO)C1CCCCC1` (centres undefined): the residual activity stood at 48% in assay [1], 39% at Neutrophil collagenase [2] and 5% in assay [4].
For `C[C@H](NC(=O)[C@H](Cc1c[nH]c2ccccc12)NC(=O)C(=O)NO)c1ccccc1`, the residual activity was determined as 36% in assay [1], 2% on Neutrophil collagenase [2] and 1% in assay [4]. The values for the Ki (on Neutrophil collagenase [6]; in assay [3]) were 0.4 µM and 0.1 µM, respectively.
`CCCCC(CC)COCCCNC(=O)C(=O)NO` (centres undefined): the residual activity in assay [1] came to 14%; on Neutrophil collagenase [2], 12%; in assay [4], 3%. For the same compound, the Ki on Neutrophil collagenase [6] amounted to 7 µM; in assay [3] it was 0.25 µM; in assay [5], 9 µM.
With `CC(OCc1ccccc1)[C@H](NC(=O)C(=O)NO)C(=O)N(C)C` (some centres undefined), the residual activity in assay [1] was 66%; on Neutrophil collagenase [2] it was 67%; in assay [4], 18%. In addition, the Ki on Neutrophil collagenase [6] is 75 µM; in assay [3] it was 4 µM.
As for `C[C@H](NC(=O)[C@H](CC(=O)OCc1ccccc1)NC(=O)C(=O)NO)c1ccccc1`, the residual activity in assay [1] worked out at 53%; at Neutrophil collagenase [2], 1%; in assay [4], 3%. Also, the affinity in assay [3], expressed as Ki, was 0.6 µM.
Consider `C[C@H](NC(=O)[C@H](Cc1ccc(OCc2ccccc2)cc1)NC(=O)C(=O)NO)c1ccccc1`, for which the residual activity in assay [1] was 69%; at Neutrophil collagenase [2] it was 5%; in assay [4] it was 11%.
Consider `CN(C)C(=O)[C@@H](Cc1ccc(OCc2ccccc2)cc1)NC(=O)[C@H](Cc1ccccc1)NC(=O)C(=O)NO`, for which the results for the residual activity (in assay [1]; on Neutrophil collagenase [2]; in assay [4]) were 5%, 10% and 3%, respectively. The Ki in assay [3] is 1 µM; in assay [5] it was 1.4 µM.
For `C[C@H](NC(=O)[C@H](COCc1ccccc1)NC(=O)C(=O)NO)c1ccccc1`, in that order: 19%, 1%, 6%, 3.3 µM and 11 µM.
In the case of `CN(C)C(=O)[C@H](Cc1ccccc1)NC(=O)C(=O)NO`, the residual activity in assay [1] was found to be 15%; on Neutrophil collagenase [2], 48%; in assay [4], 25%. Further, the results for the Ki (on Neutrophil collagenase [6]; in assay [3]; in assay [5]) were 38 µM, 14 µM and 9.5 µM, respectively.
Turning to `CN(C)C(=O)[C@H](Cc1ccc2ccccc2c1)NC(=O)C(=O)NO`, the results for the residual activity (in assay [1]; on Neutrophil collagenase [2]; in assay [4]) were 30%, 15% and 19%, respectively. Moreover, the Ki came out at 6 µM on Neutrophil collagenase [6] and 44 µM in assay [3].
As to `C[C@H](NC(=O)C(=O)NO)C(=O)N[C@@H](C)c1ccccc1`, the residual activity on Neutrophil collagenase [2] worked out at 9%; in assay [4], 35%. Besides, the figures for the Ki (at Neutrophil collagenase [6]; in assay [3]; in assay [5]) were 6 µM, 9 µM and 180 µM, respectively. Also, in assay [7], the inhibition is 80%.

One may read the residual activity as what remains of the control signal, in per cent. Usually Ki stands for the dissociation constant of the complex between target and ligand, obtained from inhibition or displacement. In general, inhibition refers to the share of the control response that was lost under treatment.

Source of the values: ChEMBL document CHEMBL1136063, “Oxal hydroxamic acid derivatives with inhibitory activity against matrix metalloproteinases” (Bioorg Med Chem Lett, 2002).
